Measurements: patent US6946468B1, “3-mercaptopyrrolidines as farnesyl protein transferase inhibitors” (Zeneca Limited, priority 1996, dated 2005)

Target: T1, Farnesyl protein transferase (FPT) (Homo sapiens, UniProt P49354+P49356)
T1 construct: partially purified from human placenta by ammonium sulphate fractionation; from tissue; host or cells: human placenta
Test: Farnesyl protein transferase (FPT) inhibition, tritiated farnesyl pyrophosphate incorporation into Kras (ras-CVIM)
Format: biochemical
Conditions: FPT partially purified from human placenta; 300 nM tritiated farnesyl pyrophosphate, 120 nM ras-CVIM, 20 minutes at 37°
Experimental: Biological activity was tested as follows. Farnesyl protein transferase (FPT) was partially purified from human placenta by ammonium sulphate fractionation followed by a single Q-Sepharose® (Pharmacia, Inc) anion exchange chromatography essentially as described by Ray and Lopez-Belmonte (Ray K P and Lopez-Belmonte J (1992) Biochemical Society Transations 20 494-497). The substrate for FPT was Kras (CVIM C-terminal sequence). The cDNA for oncogenic val12 variant of human c-Ki-ras-2 4B was obtained from the plasmid pSW11-1 (ATCC). This was then subcloned into the polylinker of a suitable expression vector e.g. pIC147. The Kras was obtained after expression in the E. coli strain, BL21. The expression and purification of c-KI-ras-2 4B and the val12 variant in E. coli has also been reported by Lowe et al (Lowe P N et al. J. Biol. Chem. (1991) 266 1672-1678).
Incubations with enzyme contained 300 nM tritiated farnesyl pyrophosphate (DuPont/New England Nuclear), 120 nM ras-CVIM, 50 mM Tris HCl pH 8.0, 5 mM MgCl2, 10 μM ZnCl2, 5 mM dithiotheitol and compounds were added at appropriate concentrations in DMSO (3% final concentration in test and vehicle control). […] Precipitated protein was then collected onto glass fibre filter mats (B) using a Tomte® cell harvester and tritiated label was measured in a Wallac®1204 Betaplate scintillation counter.

SMILES: O=C(Cc1cccnc1)N(CC(c1ccccc1)c1ccccc1)C[C@@H]1NCC[C@@H]1S (relative stereo) [Example 2]
- IC50: ~420 nM
